Columns and labels:
Format in all cases: in vivo
Morning Glory [1] = test: post-emergence herbicide test; details: Ipomoea, post-emergence, 0.25 lb/A; read-out: % plant inhibition
Procedure, shortened: (§1)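 Greenhouse plants grown from seeds in topsoil were treated two to three weeks after sowing with a spray solution or suspension of test chemical with about 0.4% by volume emulsifier, applied at 1870 L/Ha and 170.3 kPa. Percent inhibition per species was the endpoint.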

Cocklebur [2] = test: post-emergence herbicide test; details: Xanthium strumarium, post-emergence, 0.25 lb/A; read-out: % plant inhibition
Procedure, shortened: as §1

Green Foxtail [3] = test: post-emergence herbicide test; details: Setaria viridis, post-emergence, 0.25 lb/A; read-out: % plant inhibition
Procedure, shortened: as §1

Giant Foxtail [4] = test: post-emergence herbicide test; details: Setaria faberi, post-emergence, 0.25 lb/A; read-out: % plant inhibition
Procedure, shortened: as §1

Birdseye Speedwell [5] = test: post-emergence herbicide test; details: post-emergence, 0.25 lb/A; read-out: % plant inhibition
Procedure, shortened: as §1

Soybean [6] = test: post-emergence herbicide test; details: Glycine max, post-emergence, 0.25 lb/A; read-out: % plant inhibition
Procedure, shortened: as §1

Barnyardgrass [7] = test: post-emergence herbicide test; details: Echinochloa crus-galli, post-emergence, 0.25 lb/A; read-out: % plant inhibition
Procedure, shortened: as §1

Bedstraw Catchweed [8] = test: post-emergence herbicide test; details: Galium aparine, post-emergence, 0.25 lb/A; read-out: % plant inhibition
Procedure, shortened: as §1

Wild Oats [9] = test: post-emergence herbicide test; details: Avena fatua, post-emergence, 0.25 lb/A; read-out: % plant inhibition
Procedure, shortened: as §1

Downy Brome [10] = test: post-emergence herbicide test; details: Bromus tectorum, post-emergence, 0.25 lb/A; read-out: % plant inhibition
Procedure, shortened: as §1

Velvetleaf [11] = test: post-emergence herbicide test; details: Abutilon theophrasti, post-emergence, 0.25 lb/A; read-out: % plant inhibition
Procedure, shortened: as §1

Blackgrass [12] = test: post-emergence herbicide test; details: Alopecurus myosuroides, post-emergence, 0.25 lb/A; read-out: % plant inhibition
Procedure, shortened: as §1

Rape [13] = test: post-emergence herbicide test; details: post-emergence, 0.25 lb/A; read-out: % plant inhibition
Procedure, shortened: as §1

Common Chickweed [14] = test: post-emergence herbicide test; details: post-emergence, 0.25 lb/A; read-out: % plant inhibition
Procedure, shortened: as §1

Wheat [15] = test: post-emergence herbicide test; details: Triticum aestivum, post-emergence, 0.25 lb/A; read-out: % plant inhibition
Procedure, shortened: as §1

Corn [16] = test: post-emergence herbicide test; details: Zea mays, post-emergence, 0.25 lb/A; read-out: % plant inhibition
Procedure, shortened: as §1

Seedling Johnsongrass [17] = test: post-emergence herbicide test; details: Sorghum halepense, post-emergence, 0.25 lb/A; read-out: % plant inhibition
Procedure, shortened: as §1

Morning Glory [18] = test: pre-emergence herbicide test; details: Ipomoea, pre-emergence, 0.25 lb/A; read-out: % plant inhibition
Procedure, shortened: (§2)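 Soil-applied pre-emergence screen: compound added to cover topsoil over sown seeds, pans held on greenhouse bench with subirrigation, % inhibition scored ~2 weeks later.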

Cocklebur [19] = test: pre-emergence herbicide test; details: Xanthium strumarium, pre-emergence, 0.25 lb/A; read-out: % plant inhibition
Procedure, shortened: as §2

Green Foxtail [20] = test: pre-emergence herbicide test; details: Setaria viridis, pre-emergence; 0.25 lb/A; read-out: % plant inhibition
Procedure, shortened: as §2

Giant Foxtail [21] = test: pre-emergence herbicide test; details: Setaria faberi, pre-emergence, 0.25 lb/A; read-out: % plant inhibition
Procedure, shortened: as §2

Birdseye Speedwell [22] = test: pre-emergence herbicide test; details: pre-emergence, 0.25 lb/A; read-out: % plant inhibition
Procedure, shortened: as §2

Soybean [23] = test: pre-emergence herbicide test; details: Glycine max, pre-emergence, 0.25 lb/A; read-out: % plant inhibition
Procedure, shortened: as §2

Barnyardgrass [24] = test: pre-emergence herbicide test; details: Echinochloa crus-galli, pre-emergence, 0.25 lb/A; read-out: % plant inhibition
Procedure, shortened: as §2

Bedstraw Catchweed [25] = test: pre-emergence herbicide test; details: Galium aparine, pre-emergence, 0.25 lb/A; read-out: % plant inhibition
Procedure, shortened: as §2

Wild Oats [26] = test: pre-emergence herbicide test; details: Avena fatua, pre-emergence, 0.25 lb/A; read-out: % plant inhibition
Procedure, shortened: as §2

Downy Brome [27] = test: pre-emergence herbicide test; details: Bromus tectorum, pre-emergence, 0.25 lb/A; read-out: % plant inhibition
Procedure, shortened: as §2

Velvetleaf [28] = test: pre-emergence herbicide test; details: Abutilon theophrasti, pre-emergence, 0.25 lb/A; read-out: % plant inhibition
Procedure, shortened: as §2

Blackgrass [29] = test: pre-emergence herbicide test; details: Alopecurus myosuroides, pre-emergence, 0.25 lb/A; read-out: % plant inhibition
Procedure, shortened: as §2

Rape [30] = test: pre-emergence herbicide test; details: pre-emergence, 0.25 lb/A; read-out: % plant inhibition
Procedure, shortened: as §2

Common Chickweed [31] = test: pre-emergence herbicide test; details: pre-emergence, 0.25 lb/A; read-out: % plant inhibition
Procedure, shortened: as §2

Wheat [32] = test: pre-emergence herbicide test; details: Triticum aestivum, pre-emergence, 0.25 lb/A; read-out: % plant inhibition
Procedure, shortened: as §2

Corn [33] = test: pre-emergence herbicide test; details: Zea mays, pre-emergence, 0.25 lb/A; read-out: % plant inhibition
Procedure, shortened: as §2

Seedling Johnsongrass [34] = test: pre-emergence herbicide test; details: Sorghum halepense, pre-emergence, 0.25 lb/A; read-out: % plant inhibition
Procedure, shortened: as §2

Row | Structure (SMILES) | inhibition at 280.212 g/ha (Morning Glory [1]) [%] | inhibition at 280.212 g/ha (Cocklebur [2]) [%] | inhibition at 280.212 g/ha (Green Foxtail [3]) [%] | inhibition at 280.212 g/ha (Giant Foxtail [4]) [%] | inhibition at 280.212 g/ha (Birdseye Speedwell [5]) [%] | inhibition at 280.212 g/ha (Soybean [6]) [%] | inhibition at 280.212 g/ha (Barnyardgrass [7]) [%] | inhibition at 280.212 g/ha (Bedstraw Catchweed [8]) [%] | inhibition at 280.212 g/ha (Wild Oats [9]) [%] | inhibition at 280.212 g/ha (Downy Brome [10]) [%] | inhibition at 280.212 g/ha (Velvetleaf [11]) [%] | inhibition at 280.212 g/ha (Blackgrass [12]) [%] | inhibition at 280.212 g/ha (Rape [13]) [%] | inhibition at 280.212 g/ha (Common Chickweed [14]) [%] | inhibition at 280.212 g/ha (Wheat [15]) [%] | inhibition at 280.212 g/ha (Corn [16]) [%] | inhibition at 280.212 g/ha (Seedling Johnsongrass [17]) [%] | inhibition at 280.212 g/ha (Morning Glory [18]) [%] | inhibition at 280.212 g/ha (Cocklebur [19]) [%] | inhibition at 280.212 g/ha (Green Foxtail [20]) [%] | further results
1 | CC(C)OC(=O)c1cc(-c2nn(C)c(C(F)(F)F)c2CO)c(F)cc1Cl [Compound 14, 2-Chloro-4-fluoro-5-[4-(hydroxymethyl)-1-methyl-5-(trifluoromethyl)-1H-pyrazol-3-yl]benzoic acid, 1-methylethyl ester] | 85 | 95 | 65 | 25 | 90 | 25 | 65 | 40 | 50 | 60 | 99 | 60 | 75 | 45 | 13 | 10 | 80 | 40 | 15 | 100 | inhibition at 280.212 g/ha (Giant Foxtail [21]): 98%; inhibition at 280.212 g/ha (Birdseye Speedwell [22]): 98%; inhibition at 280.212 g/ha (Soybean [23]): 8%; inhibition at 280.212 g/ha (Barnyardgrass [24]): 90%; inhibition at 280.212 g/ha (Bedstraw Catchweed [25]): 20%; inhibition at 280.212 g/ha (Wild Oats [26]): 50%; inhibition at 280.212 g/ha (Downy Brome [27]): 30%; inhibition at 280.212 g/ha (Velvetleaf [28]): 60%; inhibition at 280.212 g/ha (Blackgrass [29]): 65%; inhibition at 280.212 g/ha (Rape [30]): 5%; inhibition at 280.212 g/ha (Common Chickweed [31]): 98%; inhibition at 280.212 g/ha (Wheat [32]): 2%; inhibition at 280.212 g/ha (Corn [33]): 15%; inhibition at 280.212 g/ha (Seedling Johnsongrass [34]): 97%
2 | CC(C)OC(=O)c1cc(-c2nn(C)c(C(F)(F)F)c2CF)c(F)cc1Cl [Compound 15, 2-Chloro-4-fluoro-5-[4-(fluoromethyl)-1-methyl-5-(trifluoromethyl)-1H-pyrazol-3-yl]benzoic acid, 1-methylethyl ester] | 98 | 99 | 100 | 90 | 100 | 90 | 99 | 100 | 100 | 100 | 100 | 100 | 100 | 100 | 20 | 65 | 100 | 93 | 90 | 100 | inhibition at 280.212 g/ha (Giant Foxtail [21]): 100%; inhibition at 280.212 g/ha (Birdseye Speedwell [22]): 100%; inhibition at 280.212 g/ha (Soybean [23]): 20%; inhibition at 280.212 g/ha (Barnyardgrass [24]): 100%; inhibition at 280.212 g/ha (Bedstraw Catchweed [25]): 98%; inhibition at 280.212 g/ha (Wild Oats [26]): 90%; inhibition at 280.212 g/ha (Downy Brome [27]): 100%; inhibition at 280.212 g/ha (Velvetleaf [28]): 97%; inhibition at 280.212 g/ha (Blackgrass [29]): 100%; inhibition at 280.212 g/ha (Rape [30]): 60%; inhibition at 280.212 g/ha (Common Chickweed [31]): 100%; inhibition at 280.212 g/ha (Wheat [32]): 0%; inhibition at 280.212 g/ha (Corn [33]): 93%; inhibition at 280.212 g/ha (Seedling Johnsongrass [34]): 100%
3 | Cc1cc(-c2nn(C)c(C(F)(F)F)c2C)c(O)cc1Cl [Compound 16] | 5 | 0 | 0 | 0 | 30 | 0 | 0 | 25 | 0 | 0 | 0 | 5 | 0 | 50 | 0 | 0 | 0 | 0 | 0 | 10 | inhibition at 280.212 g/ha (Giant Foxtail [21]): 0%; inhibition at 280.212 g/ha (Birdseye Speedwell [22]): 100%; inhibition at 280.212 g/ha (Soybean [23]): 0%; inhibition at 280.212 g/ha (Barnyardgrass [24]): 0%; inhibition at 280.212 g/ha (Bedstraw Catchweed [25]): 45%; inhibition at 280.212 g/ha (Wild Oats [26]): 20%; inhibition at 280.212 g/ha (Downy Brome [27]): 20%; inhibition at 280.212 g/ha (Velvetleaf [28]): 0%; inhibition at 280.212 g/ha (Blackgrass [29]): 15%; inhibition at 280.212 g/ha (Rape [30]): 55%; inhibition at 280.212 g/ha (Common Chickweed [31]): 95%; inhibition at 280.212 g/ha (Wheat [32]): 0%; inhibition at 280.212 g/ha (Corn [33]): 0%; inhibition at 280.212 g/ha (Seedling Johnsongrass [34]): 0%

From US5672715A, “Herbicidal substituted 3-aryl-pyrazoles” (Monsanto Company, priority 1995, dated 1997)
